The record followed here is EP1738803A1, “Inhibitors of staphylococcus hominis in deodorants and antiperspirants” (Henkel Kommanditgesellschaft auf Aktien, priority 2005, dated 2007).

Read-outs that look alike come from different tables or passages of the source.

In the assay the test system is Staphylococcus hominis. Put plainly: Inhibition test: growth of Staphylococcus hominis in Luria broth liquid culture, plate count versus control. The class given is cell-based. The settings on record: for log reduction at 0.1 % / log reduction at 0.05 % / log reduction at 0.2 % / log reduction at 0.5 %: Staphylococcus hominis, read-out: Hemmleistung als Differenz zur Kontrolle in log-Stufen (RF-Wert); for log reduction at 0.1 %: 0,1 Gew.-% Aktivsubstanz; for log reduction at 0.1 % / log reduction at 0.05 % / Hemmleistung als Differenz zur Kontrolle in log-Stufen (RF-Wert): 37°C; for log reduction at 0.05 %: 0,05 Gew.-% Aktivsubstanz; for Hemmleistung als Differenz zur Kontrolle in log-Stufen (RF-Wert): 0,5 Gew.-% Aktivsubstanz. The procedure: Eine Luria-broth-Vorkultur (1 Gew.-% Trypton, 0,5 Gew.-% Hefeextrakt, 0,5 Gew.-% NaCl) von Staphylococcus hominis wurde mit Medium auf eine OD600 von 0,1 (entspricht 10^5-10^7 cfu/ml) eingestellt und in 50 ml-Aliquots auf Erlenmeyer-Kolben verteilt. Dazu wurden die zu testenden Wirkstoffe gegeben, so dass sie in den in Tabelle 1 angegebenen Konzentrationen vorlagen, und die Kultur mit 100 Upm bei 37°C inkubiert. Öllösliche Stoffe wie Bisabolol wurden mit 0,1% Tween emulgiert und gegen eine entsprechende Kontrolle getestet. Nach 4, 8 und 24 h erfolgte eine Keimzahlbestimmung über Ausplattieren, wobei die Hemmleistung der einzelnen Wirkstoffe als RF-Wert (Differenz zur Kontrolle in log-Stufen) angegeben ist. Tabelle 1

For the compound `CC(C)=CCC[C@](C)(O)C1CC=C(C)CC1` (stereo partly drawn) [(-)-α-Bisabolol], the log reduction at 0.1 % reads like this: (Zeit 0 h) 0; (Zeit 4 h) 1.98; (Zeit 8 h) 2.6. In addition, the log reduction at 0.05 % runs as follows: (Zeit 0 h) 0; (Zeit 4 h) 1.3; (Zeit 8 h) 1.75.
Consider `CCCCC(CC)COCC(O)CO` (stereo not drawn) [Sensiva SC 50, α-Mono-(2-ethylhexyl)glycerinether], for which the log reduction at 0.2 % came to 0 (0 h), 5.77 (4 h) and 6.19 (8 h). The log reduction at 0.5 % reads like this: (0 h) 0; (4 h) 6.14; (8 h) 6.63.
In the case of Aluminiumchlorhydrat, the “Hemmleistung als Differenz zur Kontrolle in log-Stufen (RF-Wert)” value (Zeit 0 h) worked out at 0 log-Stufen, the “Hemmleistung als Differenz zur Kontrolle in log-Stufen (RF-Wert)” value (Zeit 4 h) is 6,07 log-Stufen and the “Hemmleistung als Differenz zur Kontrolle in log-Stufen (RF-Wert)” value (Zeit 8 h) was 6,34 log-Stufen.
